Reference: PMC8340127 (iScience, 2021)
Where two headings read alike, the source gives them in different places. Residues, ends and D or L forms follow the SMILES beside them.

Tests used:
[1] = molecular target: T1, 15N-Aβ40 (Homo sapiens, UniProt P05067); assay: biochemical; type: binding
T1 construct: Uniformly isotopically ^15N -labelled Amyloid-β1-40 (Aβ40); purchased AlexoTech AB, Umeå, Sweden AB-100-05

[2] = tested on: neuroblastoma cells; conditions: cited from earlier work
[3] = molecular target: T2, Aβ40 (Homo sapiens, UniProt P05067); type: biochemical
T2 construct: Recombinant Amyloid-β1-40 (Aβ40) wild type peptide; purchased AlexoTech AB, Umeå, Sweden AB-100-10
T2 sequence (P05067 672-711): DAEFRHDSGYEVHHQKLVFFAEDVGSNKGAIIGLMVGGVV

[4] = molecular target: T2, Aβ40; type: biochemical; remark: listed apart in the source
[5] = pH 7.4
[6] = molecular target: T1, 15N-Aβ40; type: biochemical; conditions: pH 7.35
[7] = molecular target: T3, Aβ42 (Homo sapiens, UniProt P05067); type: biochemical; conditions: pH 7.3
T3 construct: Recombinant Amyloid-β1-42 (Aβ42) wild type peptide; purchased rPeptide, Watkinsville, USA A-1163-2
T3 sequence (P05067 672-713): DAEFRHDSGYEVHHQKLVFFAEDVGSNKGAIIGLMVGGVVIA

[8] = molecular target: T3, Aβ42; type: biochemical
[9] = type: biochemical; conditions: pH 7.4
[10] = molecular target: T3, Aβ42; type: biochemical; conditions: pH 7.8
[11] = molecular target: T3, Aβ42; type: binding
[12] = type: biochemical; conditions: pH 7.4; remark: listed apart in the source
[13] = molecular target: T3, Aβ42; type: biochemical; conditions: pH 8
[14] = molecular target: T3, Aβ42; type: binding; conditions: pH 8.3

T1 sequence (P05067 672-711): as the sequence (P05067 672-711) above

Compound: CC[C@H](C)[C@H](NC(=O)[C@H](CC(C)C)NC(=O)[C@H](CC(=O)O)NC(=O)[C@H](CCCCN)NC(=O)[C@@H](NC(=O)[C@H](CCCNC(=N)N)NC(=O)[C@H](CC(C)C)NC(=O)[C@@H](N)CCSC)[C@@H](C)O)C(=O)N[C@@H](Cc1c[nH]c2ccccc12)C(=O)N[C@H](C(=O)N[C@@H](CC(C)C)C(=O)N[C@@H](Cc1ccccc1)C(=O)N[C@@H](Cc1ccccc1)C(=O)N[C@@H](CC(C)C)C(=O)NCC(=O)N[C@H](C(=O)N[C@@H](C)C(=O)N[C@H](C(=O)N[C@@H](CO)C(=O)N[C@@H](CCCCN)C(=O)N[C@@H](CCCCN)C(=O)N[C@@H](CCCNC(=N)N)C(=O)N1CCC[C@H]1C(=O)N[C@@H](CCCCN)C(=O)N1CCC[C@H]1C(N)=O)C(C)C)[C@@H](C)O)[C@@H](C)O [NCAM-PrP] (H-MLRTKDLIWTLFFLGTAVSKKRPKP-NH2)
- Kd [1]: ~160 µM
- effect on Aβ-induced cytotoxicity in cells [2]: attenuates Aβ-induced cytotoxicity in cells
- toxicity [2]: not toxic at the concentrations studied

Compound: Aβ40: Recombinant Amyloid-β1-40 (Aβ40) wild type peptide
- aggregation half-time τ½, Aβ40 alone + NaF [3]: 2 h
- aggregation half-time τ½, Aβ40 alone ([3]; pH 7.3): approximately 6 h
- secondary structure by FTIR [4]: both random coil and β-sheet conformations

Compound: Aβ: Amyloid-β (Aβ) peptide, 40 or 42 residues long; in b38 15N-Aβ40
- secondary structure in SDS micelles [5]: α-helical secondary structures
- aggregation of Aβ40 alone (HSQC signal intensity) [6]: started to aggregate during the incubation

Compound: DAEFR5HDSGY10EVHHQ15KLVFF20AEDVG25SNKGA30IIGLM35VGGVV40IA [Aβ42, Recombinant Amyloid-β1-42 (Aβ42) wild type peptide]
- time at which normalized CD signals at 198 and 220 nm meet, Aβ42 alone [7]: approximately one
- β-sheet formation of Aβ42 alone [7]: transitioned into a mostly β-sheet state within 4 h
- fibril diameter by AFM, Aβ42 alone [8]: approximately 10 nm
- calcein leakage by monomeric Aβ42 [9]: around 10%
- effect of 10% pre-formed seeds on Aβ42 amyloid formation, no NCAM-PrP [10]: the amyloid formation was enhanced
- share of tetramer in the Aβ42 oligomeric population [11]: about 50%
- calcein leakage by monomeric Aβ42 [12]: around 10%
- aggregation half-time τ½, Aβ42 alone [13]: about 4 h
- aggregation half-time τ½, Aβ42 alone + NaF [13]: approximately 2.5 h
- oligomeric state of Aβ42, aqueous [14]: mostly monomeric peptide with a rich population of small and heterogeneous oligomers
